Reference: patent publication US9045468B2, “2,5-methano- and 2,5-ethano-tetrahydrobenzazepine derivatives and use thereof to block reuptake of norepinephrine, dopamine, and serotonin” (Albany Molecular Research, Inc., priority 2010, dated 2015)
Where two headings read alike, the source gives them in different places.

How the values were obtained:
[1] = target: hSERT (Homo sapiens (Human), UniProt P31645); experiment: SERT radioligand binding assay ([125I]RTI-55, HEK-293 membranes)
Method: (§1) The medium was removed from the flasks and the cells rinsed with HBSS without Ca and without Mg. The cells were then incubated for 5-10 minutes in 10 mM Tris-Cl, pH 7.5, 5 mM EDTA before the cells were lifted with a combination of pipetting and scraping, as needed. The cell suspension was collected into centrifuge bottles and homogenized for 30 seconds with a Polytron homogenizer. The suspension was centrifuged for 30 minutes at 32,000×g, 4° C. The supernatant was decanted and the pellet resuspended and homogenized in 50 mM Tris-Cl, pH 7.5, 1 mM EDTA for 10 seconds. The suspension was then centrifuged again for 30 minutes at 32,000×g, 4° C. The supernatant was decanted and the pellet resuspended in 50 mM Tris-Cl, pH 7.5, 1 mM EDTA and briefly homogenized. A Bradford assay (Bio-rad) was performed and the membrane preparation diluted to 2 mg/ml with 50 mM Tris-Cl, pH 7.5, 1 mM EDTA. Aliquots were prepared, and then frozen and stored at −80° C.
Compounds were dissolved in 100% DMSO at a concentration 100 times the desired highest assay concentration, serially diluted 1:3 in 100% DMSO, and 0.4 μl/well of each solution was dispensed to a Nunc polypropylene, round bottom, 384-well plate. […] The contents of the assay plate were then transferred to a Millipore MultiscreenHTS GF/B filter plate which was pretreated with 0.5% PEI for at least one hour. The plate was vacuum filtered and washed with 7 washes of […] 50 mM Tris-Cl, pH 7.5, 120 mM NaCl, 5 mM KCl chilled to 4° C. The filtration and washing were completed in less than 90 seconds. The plates were air-dried overnight, 12 μl/well of MicroScint scintillation fluid added, and the plates counted in a Trilux.
(§2) Each plate was run in triplicate, and the concentration response curve thus generated was fit using the four-parameter dose response equation, Y=Bottom+(Top-Bottom)/(1+10^((Log IC50−X)*HillSlope)) in order to determine the IC50 value for each compound. The radioligand concentration chosen for each assay corresponds to the Kd concentration determined through saturation binding analysis for each assay.

[2] = target: hNET (Homo sapiens (Human), UniProt P23975); experiment: NET radioligand binding assay ([3H]nisoxetine, HEK-293 membranes)
Method: as §1
Compounds were dissolved in 100% DMSO at a concentration 100 times the desired highest assay concentration, serially diluted 1:3 in 100% DMSO, and 1.0 μl/well of each solution was dispensed to a Nunc polypropylene, round bottom, 384-well plate. […] 50 μl/well of a 2× membrane preparation (0.4 mg/ml in 50 mM Tris-Cl, pH 7.5, 120 mM NaCl, 5 mM KCl) and 50 μl/well of a 2× radioligand solution (4 nM [^3H]nisoxetine in 50 mM Tris-Cl, pH 7.5, 120 mM NaCl, 5 mM KCl) were added to the well and the reaction incubated for 1 hour at room temperature. The contents of the assay plate were then transferred to a Millipore MultiscreenHTS GF/B filter plate which was pretreated with 0.5% PEI for at least one hour. The plate was vacuum filtered and washed with 7 washes of 100 μl/well 50 mM Tris-Cl, pH 7.5, 120 mM NaCl, 5 mM KCl chilled to 4° C. The filtration and washing were completed in less than 90 seconds. The plates were air-dried overnight, 12 μl/well of MicroScint scintillation fluid added, and the plates counted in a Trilux.
as §2

[3] = target: hDAT (Homo sapiens (Human), UniProt Q01959); experiment: DAT radioligand binding assay ([125I]RTI-55, HEK-293 membranes)
Method: as §1, with “Recombinant HEK-293 cells expressing either the hSERT, hDAT, or hNET proteins were harvested from T-175 flasks as follows. The medium” for “The medium”
Compounds were dissolved in 100% DMSO at a concentration 100 times the desired highest assay concentration, serially diluted 1:3 in 100% DMSO, and 0.4 μl/well of each solution was dispensed to a Nunc polypropylene, round bottom, 384-well plate. […] 20 ul/well of a 2× membrane preparation (12.5 μg/ml in 30 mM sodium phosphate buffer, pH 7.9 at 4° C.) and 20 μl/well of a 2× radioligand solution (250 pM [^125I]RTI-55 in 30 mM sodium phosphate buffer, pH 7.9 at 4° C.) were added to the well and the reaction incubated for 1 hour at room temperature. The contents of the assay plate were then transferred to a Millipore MultiscreenHTS GF/B filter plate which was pretreated with 0.5% PEI for at least one hour. The plate was vacuum-filtered and washed with 7 washes of 100 μl/well 50 mM Tris-Cl, pH 7.5, 120 mM NaCl, 5 mM KCl chilled to 4° C. The filtration and washing were completed in less than 90 seconds. The plates were air-dried overnight, 12 μl/well of MicroScint scintillation fluid added, and the plates counted in a Trilux.
as §2

[4] = recombinant HEK-293 membranes, [125I]RTI-55, read-out: Binding Affinity (IC50, nM) SERT
[5] = recombinant HEK-293 membranes, [3H]nisoxetine, read-out: Binding Affinity (IC50, nM) NET
[6] = recombinant HEK-293 membranes, [125I]RTI-55, read-out: Binding Affinity (IC50, nM) DAT

Sequence of hNET (P23975 whole entry): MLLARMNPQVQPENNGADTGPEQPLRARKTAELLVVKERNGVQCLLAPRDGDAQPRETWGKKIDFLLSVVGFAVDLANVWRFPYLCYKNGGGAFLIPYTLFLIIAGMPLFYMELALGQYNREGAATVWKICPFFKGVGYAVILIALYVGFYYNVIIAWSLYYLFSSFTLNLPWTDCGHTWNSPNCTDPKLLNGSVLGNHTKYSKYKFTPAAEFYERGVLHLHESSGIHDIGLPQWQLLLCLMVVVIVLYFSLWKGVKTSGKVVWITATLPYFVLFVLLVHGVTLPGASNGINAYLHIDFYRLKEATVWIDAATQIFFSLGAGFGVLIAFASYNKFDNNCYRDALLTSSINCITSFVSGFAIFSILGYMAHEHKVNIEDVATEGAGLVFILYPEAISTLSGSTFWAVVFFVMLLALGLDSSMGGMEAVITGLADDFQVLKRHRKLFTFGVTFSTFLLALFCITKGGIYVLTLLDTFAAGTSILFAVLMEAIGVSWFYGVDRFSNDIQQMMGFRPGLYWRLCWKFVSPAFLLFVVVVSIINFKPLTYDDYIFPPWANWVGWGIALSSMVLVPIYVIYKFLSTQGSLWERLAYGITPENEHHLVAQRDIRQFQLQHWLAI
Sequence of hSERT (P31645 whole entry): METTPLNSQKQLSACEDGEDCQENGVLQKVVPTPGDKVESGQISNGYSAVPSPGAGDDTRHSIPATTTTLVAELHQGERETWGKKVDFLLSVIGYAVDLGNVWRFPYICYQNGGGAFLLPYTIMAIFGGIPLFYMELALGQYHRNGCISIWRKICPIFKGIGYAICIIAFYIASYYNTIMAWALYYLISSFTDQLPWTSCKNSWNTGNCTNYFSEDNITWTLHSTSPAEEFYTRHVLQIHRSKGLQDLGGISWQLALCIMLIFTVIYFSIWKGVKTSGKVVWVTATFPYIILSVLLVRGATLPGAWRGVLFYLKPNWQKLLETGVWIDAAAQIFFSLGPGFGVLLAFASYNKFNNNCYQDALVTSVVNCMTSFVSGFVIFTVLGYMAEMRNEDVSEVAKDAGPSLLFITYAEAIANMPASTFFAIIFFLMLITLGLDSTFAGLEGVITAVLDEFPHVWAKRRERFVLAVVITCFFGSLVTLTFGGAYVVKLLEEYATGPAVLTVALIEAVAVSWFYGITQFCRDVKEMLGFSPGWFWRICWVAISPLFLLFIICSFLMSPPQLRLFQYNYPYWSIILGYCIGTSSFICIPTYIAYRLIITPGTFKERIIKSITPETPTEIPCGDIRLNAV
Sequence of hDAT (Q01959 whole entry): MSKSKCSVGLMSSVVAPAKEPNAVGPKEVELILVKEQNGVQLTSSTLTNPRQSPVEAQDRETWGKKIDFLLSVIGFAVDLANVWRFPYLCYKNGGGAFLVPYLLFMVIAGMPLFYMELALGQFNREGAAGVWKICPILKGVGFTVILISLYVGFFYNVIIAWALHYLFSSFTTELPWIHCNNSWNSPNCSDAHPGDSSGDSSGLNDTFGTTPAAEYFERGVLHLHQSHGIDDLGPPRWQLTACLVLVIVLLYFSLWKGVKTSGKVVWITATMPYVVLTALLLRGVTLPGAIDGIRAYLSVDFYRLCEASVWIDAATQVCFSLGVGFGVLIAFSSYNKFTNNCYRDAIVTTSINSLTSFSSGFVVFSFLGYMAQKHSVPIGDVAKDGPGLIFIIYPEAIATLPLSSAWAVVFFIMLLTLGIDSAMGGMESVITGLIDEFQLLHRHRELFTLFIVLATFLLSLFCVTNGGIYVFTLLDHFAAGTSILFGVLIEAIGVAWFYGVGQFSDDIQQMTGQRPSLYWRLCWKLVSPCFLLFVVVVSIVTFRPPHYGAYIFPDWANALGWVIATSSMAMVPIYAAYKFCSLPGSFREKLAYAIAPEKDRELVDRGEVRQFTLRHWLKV

| Structure (SMILES) | IC50 [1, 4] [nM] | IC50 [2, 5] [nM] | IC50 [3, 6] [nM] | IC50 [1] [nM] | IC50 [3] [nM] | IC50 [2] [nM] |
| --- | --- | --- | --- | --- | --- | --- |
| Fc1ccc(C23CCN(Cc4cc(-c5ccc(C(F)(F)F)nn5)ccc42)C3)cc1Cl (single isomer, unassigned) [56(−), 5-(3-chloro-4-fluorophenyl)-2,5-methano-8-(6-(trifluoromethyl)pyridazin-3-yl)-2,3,4,5-tetrahydro-1H-benzo[c]azepine] | 57.8 | 798 | 243 |  |  |  |
| COc1ccc2c(c1)CN1CCC2(c2ccc(Cl)cc2)CC1 [Example 12, 5-(4-chlorophenyl)-8-methoxy-2,5-ethano-2,3,4,5-tetrahydro-1H-2-benzo[c]azepine] | 7.8 | 881 | 52 |  |  |  |
| Oc1ccc2c(c1)CN1CCC2(c2ccc(Cl)cc2)CC1 [Example 13, 5-(4-chlorophenyl)-2,5-ethano-2,3,4,5-tetrahydro-1H-2-benzo[c]azepin-8-ol] | 16.3 | 691 | 21.1 |  |  |  |
| FC(F)(F)c1ccc(-c2ccc3c(c2)CN2CCC3(c3ccc(Cl)cc3)CC2)nn1 [Example 15, 5-(4-chlorophenyl)-2,5-ethano-8-(6-(trifluoromethyl)pyridazin-3-yl)-2,3,4,5-tetrahydro-1H-benzo[c]azepine] |  | 384 |  | 2.6 | 121 |  |
| Clc1ccc(C23CCN(CC2)Cc2cc(-c4cncnc4)ccc23)cc1 [Example 16, 5-(4-chlorophenyl)-2,5-ethano-8-(pyrimidin-5-yl)-2,3,4,5-tetrahydro-1H-benzo[c]azepine] | 7.3 | 2930 | 156 |  |  |  |
| Cc1nnc2ccc(-c3ccc4c(c3)CN3CCC4(c4ccc(Cl)cc4)CC3)cn12 [Example 20, 5-(4-chlorophenyl)-2,5-ethano-8-(3-methyl-[1,2,4]triazolo[4,3-a]pyridin-6-yl)-2,3,4,5-tetrahydro-1H-benzo[c]azepine] | 12.1 | 1020 | 220 |  |  |  |
| Clc1ccc(C23CCN(CC2)Cc2cc(-c4cnc5ccccc5n4)ccc23)cc1 [Example 21, 5-(4-chlorophenyl)-2,5-ethano-8-(quinoxalin-2-yl)-2,3,4,5-tetrahydro-1H-benzo[c]azepine] | 5.2 | 1540 | 353 |  |  |  |
| O=c1n(-c2ccc3c(c2)CN2CCC3(c3ccc(Cl)cc3)CC2)nc2ccccn12 [Example 23, 2-(5-(4-chlorophenyl)-2,5-ethano-2,3,4,5-tetrahydro-1H-benzo[c]azepin-8-yl)-[1,2,4]triazolo[4,3-a]pyridin-3(2H)-one] | 1.5 | 176 | 37.5 |  |  |  |
| O=c1ccccn1-c1ccc2c(c1)CN1CCC2(c2ccc(Cl)cc2)CC1 [Example 24, 1-(5-(4-chlorophenyl)-2,5-ethano-2,3,4,5-tetrahydro-1H-benzo[c]azepin-8-yl)pyridin-2(1H)-one] | 7.3 | 5330 | 856 |  |  |  |
| Cc1nnc(-c2ccc3c(c2)CN2CCC3(c3ccc(Cl)cc3)CC2)s1 [Example 25, 2-(5-(4-chlorophenyl)-2,5-ethano-2,3,4,5-tetrahydro-1H-benzo[c]azepin-8-yl)-5-methyl-1,3,4-thiadiazole] | 6.4 | 392 | 169 |  |  |  |
| N#Cc1cccc(-c2ccc3c(c2)CN2CCC3(c3ccc(Cl)cc3)CC2)c1 [Example 27, 3-(5-(4-chlorophenyl)-2,5-ethano-2,3,4,5-tetrahydro-1H-benzo[c]azepin-8-yl)benzonitrile] |  |  | 135 | 3.4 |  | 355 |
| Clc1ccc(C23CCN(CC2)Cc2cc(N4CCOCC4)ccc23)cc1 [Example 28, 4-(5-(4-chlorophenyl)-2,5-ethano-2,3,4,5-tetrahydro-1H-benzo[c]azepin-8-yl)morpholine] | 8 | 438 | 58.9 |  |  |  |
| c1cc(C23CCN(CC2)Cc2cc(N4CCOCC4)ccc23)ccc1N1CCOCC1 [Example 29, 4-(2,5-ethano-5-(4-morpholinophenyl)-2,3,4,5-tetrahydro-1H-benzo[c]azepin-8-yl)morpholine] | 328 | 5460 | 5260 |  |  |  |
| CCS(=O)(=O)N1CCN(c2ccc3c(c2)CN2CCC3(c3ccc(Cl)cc3)CC2)CC1 [Example 30, 5-(4-chlorophenyl)-8-(4-(ethylsulfonyl)piperazin-1-yl)-2,5-ethano-2,3,4,5-tetrahydro-1H-benzo[c]azepine] | 10 | 55.8 | 13.6 |  |  |  |
| CCS(=O)(=O)N1CCN(c2ccc(C34CCN(CC3)Cc3cc(N5CCN(S(=O)(=O)CC)CC5)ccc34)cc2)CC1 [Example 31, 8-(4-(ethylsulfonyl)piperazin-1-yl)-5-(4-(4-(ethylsulfonyl)piperazin-1-yl)phenyl)-2,5-ethano-2,3,4,5-tetrahydro-1H-benzo[c]azepine] | 2320 | 8300 | 4020 |  |  |  |
| Clc1ccc(C23CCN(CC2)Cc2cc(Oc4cnccn4)ccc23)cc1 [Example 33, 5-(4-chlorophenyl)-2,5-ethano-8-(pyrazin-2-yloxy)-2,3,4,5-tetrahydro-1H-benzo[c]azepine] | 6.1 | 910 | 116 |  |  |  |
| Nc1cnc(Oc2ccc3c(c2)CN2CCC3(c3ccc(Cl)cc3)CC2)cn1 [Example 34, 5-(5-(4-chlorophenyl)-2,5-ethano-2,3,4,5-tetrahydro-1H-benzo[c]azepin-8-yloxy)pyrazin-2-amine] | 2.3 | 430 | 104 |  |  |  |
| Clc1ccc(C23CCN(CC2)Cc2cc(OCCCc4ccncc4)ccc23)cc1 [Example 35, 5-(4-chlorophenyl)-2,5-ethano-8-(3-(pyridin-4-yl)propoxy)-2,3,4,5-tetrahydro-1H-benzo[c]azepine] | 4.2 | 54.8 | 205 |  |  |  |
| Clc1ccc(C23CCN(CC2)Cc2cc(OCCCc4cccnc4)ccc23)cc1 [Example 36, 5-(4-chlorophenyl)-2,5-ethano-8-(3-(pyridin-3-yl)propoxy)-2,3,4,5-tetrahydro-1H-benzo[c]azepine] | 1.2 | 62.3 | 65.7 |  |  |  |
